Reference: patent US20120178738A1, “DIBENZO [B,F] [1,4]OXAZAPINE COMPOUNDS” (ARYX THERAPEUTICS, INC., priority 2007, published 2012)

How the values were obtained:
catalepsy in mice = assay: Catalepsy mouse model; format: in vivo; conditions: up to 30 mg/kg, IP
Procedure: A catalepsy mouse model was used to investigate a potential side effect of antipsychotic agents.
The catalepsy methodology used herein has been adapted from Tada, M. et al. ((2004). Psychopharmacol., 176, 94-100) as well as Wang et al. ((2000). J. Neurosci., 20, 8305-8314).
The animals (Swiss Webster, female, about 20 g; Charles River) were administered compounds of the invention (1 μg/kg-30 mg/kg ip). Twenty seven minutes after test compound injection, the mice's forepaws were placed on a horizontal steel bar (diameter 0.2 cm), elevated 3-5 cm above the tabletop and the time taken for the animals to remove both paws was recorded for up to 2 min.

human D2S receptor = target: T1, human D2S receptor (Homo sapiens, UniProt P14416); assay: Adenylyl cyclase (HitHunter cAMP XS) assay in HEK 293 cells expressing human D2S; format: cell-based
T1 construct: host or cells: HEK 293 cells

[1] = tested on: apomorphine-induced disruption of swimming in mice; assay: Antagonism of apomorphine-induced disruption of swimming in mice; format: in vivo
Excerpt: The antagonism of apomorphine-induced disruption of swimming in mice (Warawa, E. J. et al. (2001). Behavioral approach to nondyskinetic dopamine antagonists: identification of seroquel. J. Med. Chem., 44, 372-389) was used to assess test compounds. Apomorphine-treated mice fail to swim and remain in place, pawing the walls of the swimming chamber, or making abortive swims. Certain atypical antipsychotic compounds “normalize” the swimming behavior of such mice.
The animals (Swiss Webster, female, about 20 g; Charles River) were administered compounds of the invention (0.1 μg/kg-30 mg/kg ip) […] before they were dosed with apomorphine HCl at 1.25 mg/kg sc. Twenty seven minutes after test compound injection, and fifteen minutes after apomorphine injection, each mouse was placed into a circular swimming tank for 2 minutes and the number of “swims” were counted. The height of the tank is 15 cm and the diameter is 28 cm. A circular obstacle, 10.5 cm in diameter and 17 cm high was placed in the center of the tank creating a circular swimming channel 8.75 cm wide. The water level is 5.5 cm and the water was kept at room temperature (about 20° C.). Marks are placed on the floor and side of the tank 180 degrees apart. A “swim” was scored each time a mouse swims from one mark to the other and the median number of swims for all the mice was used as the score for that treatment.

[2] = tested on: locomotor activity in rats; assay: Spontaneous locomotor activity (open field); format: in vivo
Procedure: One of the common side effects of many antipsychotic drugs is sedation. It has been shown that agents that have sedative actions in man have the same effect in animals. The purpose of these studies was to evaluate the effect of test compounds on the locomotor activity in rats, which is used to assess the sedative properties of antipsychotic compounds.
The animals (male Sprague Dawley rats, about 300-450 g; Charles River) were assessed for ambulation for 30 minutes before and for 30 min after vehicle or test compounds. […] Locomotor activity is quantified by the number of photobeams crossed by the animal over several 3×10 min intervals.

T1 sequence (P14416 1-414 isoform P14416-2): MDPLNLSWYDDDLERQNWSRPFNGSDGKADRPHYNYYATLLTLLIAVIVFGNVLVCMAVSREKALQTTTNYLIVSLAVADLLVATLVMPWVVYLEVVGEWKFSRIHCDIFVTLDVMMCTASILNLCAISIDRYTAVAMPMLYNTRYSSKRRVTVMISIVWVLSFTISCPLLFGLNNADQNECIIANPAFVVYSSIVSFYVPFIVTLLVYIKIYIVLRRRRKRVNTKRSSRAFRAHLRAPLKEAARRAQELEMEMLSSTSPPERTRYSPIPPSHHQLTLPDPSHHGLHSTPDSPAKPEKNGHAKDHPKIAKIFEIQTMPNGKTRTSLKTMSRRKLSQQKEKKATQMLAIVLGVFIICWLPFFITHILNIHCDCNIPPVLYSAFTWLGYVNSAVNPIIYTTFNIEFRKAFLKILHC

## CCOC(=O)C[C@H]1CN(C2=Nc3cc(Cl)ccc3Oc3ccccc32)CCN1 [Compound K, (S,E)-ethyl 2-(4-(8-chlorodibenzo[b,f][1,4]oxazepin-11-yl)piperazin-2-yl)acetate]
Catalepsy in mice
  catalepsy: did not cause catalepsy
Human D2S receptor; HEK 293 cells, 27 μM forskolin (agonist) or plus 30 nM dopamine (antagonist)
  functional activity at human D2S receptor: partial D2 receptor agonist and a D2 receptor antagonist
Human D2S receptor; adenylyl cyclase assay, human D2S receptor, read-out: estimated IC50
  IC50: 13 µM
[1]; ip, apomorphine HCl 1.25 mg/kg sc
  antagonizing the apomorphine-induced disruption of swimming, potency vs clozapine: more potent than clozapine
[2]; 0.03-10 mg/kg
  locomotor activity in rat (open field): did not reduce

## O=C(O)C[C@H]1CN(C2=Nc3cc(Cl)ccc3Oc3ccccc32)CCN1 [Compound Q, (S,E)-2-(4-(8-chlorodibenzo[b,f][1,4]oxazepin-11-yl)piperazin-2-yl)acetic acid]
[1]; 3 and 10 mg/kg
  reversal of apomorphine-induced disruption of swimming: reversed
[2]; 10 mg/kg
  locomotor activity in rat (open field): did not reduce
